Measurements published in patent US20250051347A1, “BIFUNCTIONAL CHIMERIC HETEROCYCLIC COMPOUND AND USE THEREOF AS ANDROGEN RECEPTOR DEGRADER” (Hinova Pharmaceuticals, Inc., priority 2021, published 2025).
Like-named read-outs stand apart in the source and are kept apart here.

What was measured:
[1] = biological target: T1, androgen receptor (AR) splicing variant AR-v7 (Homo sapiens, UniProt P10275); assay: Degradation activity on androgen receptor splicing variant AR-v7 in 22RV1 cells (ELISA); format: cell-based; settings: AR-v7 degradation in 22RV1 cells, 48 h, class symbols
T1 construct: The degradation activity of compounds on AR-v7 in 22RV1 cells; host or cells: 22RV1 cells
T1 sequence (P10275 1-644 isoform P10275-3): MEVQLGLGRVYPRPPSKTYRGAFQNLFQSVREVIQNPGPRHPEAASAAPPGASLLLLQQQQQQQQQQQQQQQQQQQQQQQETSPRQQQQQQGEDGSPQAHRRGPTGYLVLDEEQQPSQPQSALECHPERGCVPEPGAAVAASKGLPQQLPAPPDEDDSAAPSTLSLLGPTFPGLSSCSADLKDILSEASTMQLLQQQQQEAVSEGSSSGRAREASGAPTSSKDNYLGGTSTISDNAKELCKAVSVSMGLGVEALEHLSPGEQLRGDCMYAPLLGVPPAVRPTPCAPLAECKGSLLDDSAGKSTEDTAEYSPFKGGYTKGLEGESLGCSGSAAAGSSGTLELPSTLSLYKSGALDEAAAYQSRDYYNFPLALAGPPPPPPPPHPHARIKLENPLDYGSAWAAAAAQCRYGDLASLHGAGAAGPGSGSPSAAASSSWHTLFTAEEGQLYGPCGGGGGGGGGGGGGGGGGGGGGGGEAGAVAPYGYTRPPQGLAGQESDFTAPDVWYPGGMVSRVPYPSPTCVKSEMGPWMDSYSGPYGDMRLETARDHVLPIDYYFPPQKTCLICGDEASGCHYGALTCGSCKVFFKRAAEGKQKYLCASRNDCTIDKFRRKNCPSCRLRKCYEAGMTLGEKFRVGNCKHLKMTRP

[2] = tested on: 22RV1 cells; settings: Homo sapiens, 22Rv1, 144 h
Description: • 22RV1 cell lines (Cobioer, CBP6034) • Penicillin-Streptomycin (Hyclone, Cat. No. SV30010) • Cell counting kit-8 (Signalway Antibody, Cat. No. CP002)
Then, two wells were set for each concentration. 20 μL of the diluted compound solution was added to the cell culture well, and then the plate was gently shaken to mix. In addition, the experiment included 3 negative control wells only containing cells and 3 blank control wells only containing culture medium.

[3] = read-out: 22RV1 IC50 (nM), 22RV1 cells, 6 days culture, CCK-8, OD 450 nm

SMILES | DC50 [1] [nM] | IC50 [2, 3] [nM] | IC50 ([2]; read-out: 22RV1 IC50 (nM)) [nM]
CC(O)c1ccc(Oc2ccc(C3(c4ccc(O[C@H]5C[C@H](Nc6ccc7c(c6)C(=O)N(C6CCC(=O)NC6=O)C7=O)C5)cc4)CCCC3)cc2)nn1 (stereo partly shown) [Example 103] | < 10 | 2 | 
CC(C)(c1ccc(OCCCNc2ccc3c(c2)C(=O)N(C2CCC(=O)NC2=O)C3=O)cc1)c1ccc(OCc2ccnc(N3CCC3)n2)cc1 (stereo not shown) [Example 383] | 11 to 100 |  | 34
Cc1cnc(N2CC3(COC3)C2)nc1COc1ccc(C(C)(C)c2ccc(O[C@H]3C[C@H](Nc4ccc5c(c4)C(=O)N(C4CCC(=O)NC4=O)C5=O)C3)cc2)cc1 (stereo partly shown) [Example 204] | < 10 | 6 | 
CC(C)(c1ccc(OCc2cccc(N3CC4(COC4)C3)n2)cc1)c1ccc(O[C@H]2C[C@H](Nc3ccc4c(c3)C(=O)N(C3CCC(=O)NC3=O)C4=O)C2)cc1 (stereo partly shown) [Example 413] | < 10 | 11 | 
CC(C)(c1ccc(Oc2nccc(-n3nccn3)n2)cc1)c1ccc(O[C@H]2C[C@H](Nc3ccc4c(c3)C(=O)N(C3CCC(=O)NC3=O)C4=O)C2)cc1 (stereo partly shown) [Example 170, 5-(((1r,3r)-3-(4-(2-(4-((4-(2H-1,2,3-triazol-2-yl)pyrimidin-2-yl)oxy)phenyl)propan-2-yl)phenoxy)cyclobutyl)amino)-2-(2,6-dioxopiperidin-3-yl)isoindol-1,3-dione] | < 10 | 9 | 
CC(O)c1ncc(Oc2ccc(C3(c4ccc(O[C@H]5C[C@H](Nc6ccc7c(c6)C(=O)N(C6CCC(=O)NC6=O)C7=O)C5)cc4)CCCC3)cc2)cn1 (stereo partly shown) [Example 134] | < 10 | < 1 | 
CC(C)(c1ccc(Oc2ncnc(N3CC4(COC4)C3)n2)cc1)c1ccc(O[C@H]2C[C@H](Nc3ccc4c(c3)C(=O)N(C3CCC(=O)NC3=O)C4=O)C2)cc1 (stereo partly shown) [Example 160] | < 10 | 8 | 

Now from value to compound, other results behind:

DC50 [1] [nM] | IC50 [2, 3] [nM] | SMILES | IC50 ([2]; read-out: 22RV1 IC50 (nM)) [nM]
11 to 100 | 5 | Cc1nnc(-c2ncc(Oc3ccc(C(C)(C)c4ccc(O[C@H]5C[C@H](Nc6ccc7c(c6)C(=O)N(C6CCC(=O)NC6=O)C7=O)C5)cc4)cc3)cn2)o1 (stereo partly shown) [Example 473] | 
< 10 | 7 | CC(C)(c1ccc(NC2CC(Nc3ccc4c(c3)C(=O)N(C3CCC(=O)NC3=O)C4=O)C2)cc1)c1ccc(OCc2ccnc(N3CC4(COC4)C3)n2)cc1 (stereo not shown) [Example 494, 5-((3-((4-(2-(4-((2-(2-oxa-6-azaspiro[3.3]heptan-6-yl)pyrimidin-4-yl)methoxy)phenyl)propan-2-yl)phenyl)amino)cyclobutyl)amino)-2-(2,6-dioxopiperidin-3-yl)isoindolin-1,3-dione] | 
< 10 | 4 | CC(O)c1cnc(Oc2ccc(C(C)(C)c3ccc(O[C@H]4C[C@H](Nc5ccc6c(c5)C(=O)N(C5CCC(=O)NC5=O)C6=O)C4)cc3)cc2)cn1 (stereo partly shown) [Example 595] | 
< 10 | 11 | CC(C)(c1ccc(OCc2ccnc(-n3cnnc3)n2)cc1)c1ccc(O[C@H]2C[C@@H](Nc3ccc4c(c3)C(=O)N(C3CCC(=O)NC3=O)C4=O)C2)cc1 (stereo partly shown) [Example 461] | 
< 10 | 5 | Cc1cncc(Oc2ccc(C(C)(C)c3ccc(O[C@H]4C[C@H](Nc5ccc6c(c5)C(=O)N(C5CCC(=O)NC5=O)C6=O)C4)cc3)cc2)n1 (stereo partly shown) [Example 536, 2-(2,6-dioxopiperidin-3-yl)-5-(((1r,3r)-3-(4-(4-((6-methylpyrazin-2-yl)oxy)phenyl)propan-2-yl)phenoxy)amino)isoindolin-1,3-dione] | 
< 10 | 12 | CC(C)(c1ccc(Oc2nnc(N3CCOCC3)s2)cc1)c1ccc(O[C@H]2C[C@H](Nc3ccc4c(c3)C(=O)N(C3CCC(=O)NC3=O)C4=O)C2)cc1 (stereo partly shown) [Example 513] | 
< 10 | 6 | CCC(O)c1ncc(Oc2ccc(C(C)(C)c3ccc(O[C@H]4C[C@H](Nc5ccc6c(c5)C(=O)N(C5CCC(=O)NC5=O)C6=O)C4)cc3)cc2)cn1 (stereo partly shown) [Example 428] | 
